Laboratory results reported in patent publication US8394832B2, “Methods and compositions using immunomodulatory compounds for the treatment of immunodeficiency disorders” (Celgene Corporation, priority 2004, dated 2013).

Tested on: HLA-DR
Assay: FACS analysis of HLA-DR expression on B cells
Assay type: cell-based, human
Experimental: Human buffy coat (50 ml) was diluted with 50 ml sterile PBS (Ca^++, Mg^++ free), and mixed gently. A 25 ml aliquot of diluted buffy coat was transferred to each 50 ml centrifuge tube, and Histopaque-1077 (14 ml, #1077-1, Sigma) was gently layered into the bottom of the tube. The sample was centrifuged at 2,000 rpm for 30 min at room temperature. The interface containing mononuclear cells was transferred into 50 ml centrifuge tube, and washed once with PBS (1200 rpm, 5 min). The supernatant was discarded. Cell pellet was resuspended in Miltenyi buffer. Anti-CD19^+ microbeads were added to the suspension (10^7 cells in 80 μl of buffer, 20 μl antibody beads for 10^7 cells) and incubated for 15 min at 4° C. Cell pellet was washed once and resuspended in 1 ml Miltenyi buffer. The cell suspension was added to the magnetic column, washed with 10 ml Miltenyi buffer in the column. CD19^+ cells are released by 1 ml Miltenyi Buffer without magnetic field. CD19^+ cells were washed twice with RPMI complete medium. B cells (2×10^5) were plated in 96 well plate.
B cells were treated with 1 μM 1,3-dioxo-(2,6-dioxopiperidin-3-yl)-4-aminoisoindoline in presence of LPS; CD40 ligand and IL-4; or BAFF for 3 days. The suspension of B cells was washed by PBS once, and incubated with FITC conjugated anti human CD40, PE conjugated anti human CD80, or PerCP-Cy5.5 conjugated anti human HLA-DR for 30 min in the dark. B cells were subject to FACS analysis using BD FACSAria (BD biosciences).
In addition to the suppression of IL-4 induced proliferation, CD40+IL-4 induced HLA-DR expression was also examined. B cells were treated by 1,3-dioxo-(2,6-dioxopiperidin-3-yl)-4-aminoisoindoline with CD40L+IL-4 for 72 hours, and the cell surface expression markers CD40 and HLA-DR were measured by FACS. […] In contrast, for the B cells that were treated with BAFF, 1,3-dioxo-(2,6-dioxopiperidin-3-yl)-4-aminoisoindoline increased CD40 expression by 60% and HLA-DR expression by 86% (FIG. 11F). The data are consistent with the previous observation that immunomodulatory compounds have no effect on CD40+IL-4 signaling.

`Nc1cccc2c1C(=O)N(C1CCC(=O)NC1=O)C2=O` (stereo not drawn) [1,3-dioxo-(2,6-dioxopiperidin-3-yl)-4-aminoisoindoline] was tested, and the “increase of HLA-DR expression” value (B cells treated with BAFF (FIG. 11F)) was 86%, the HLA-DR expression (B cells treated with BAFF or LPS, 1 μM, 3 days (FIG. 2B)) was “upregulated” and the “CD40+IL-4 induced HLA-DR expression” value (B cells with CD40L+IL-4 for 72 hours (FIG. 11E)) was “no enhancement”.
